The supplement of paper PMC10307832

How the values were obtained:
Test in all cases: relative viability (nuclei count vs DMSO), 5 days (fraction); higher = more cells survive
NCI-H522 = system: NCI-H522
Outline: (§1)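 Five library-drug doses in √10 steps were combined with a fixed anchor-drug dose, or a single drug was given alone, by pin tool to lung cancer cell lines in 1536-well plates the day after seeding. Nuclei were stained and counted after 5 days. Relative viability is the nuclei count in treated wells over that in vehicle wells, taken as the median of duplicate plates.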

ChaGo-K-1 = system: ChaGo-K-1
Outline: as §1

SK-MES-1 = system: SK-MES-1
Outline: as §1

NCI-H1651 = system: NCI-H1651
Outline: as §1

NCI-H1623 = system: NCI-H1623
Outline: as §1

A549 = system: A549
Outline: as §1

Calu-6 = system: Calu-6
Outline: as §1

NCI-H1703 = system: NCI-H1703
Outline: as §1

EBC-1 = system: EBC-1
Outline: as §1

NCI-H1648 = system: NCI-H1648
Outline: as §1

NCI-H1299 = system: NCI-H1299
Outline: as §1

IA-LM = system: IA-LM
Outline: as §1

What does the source list for O=C(O)c1ccc(-c2c[nH]c3ncc(-c4ccccc4)cc23)cc1C1CCCC1 + Cc1nc(Nc2ncc(C(=O)Nc3c(C)cccc3Cl)s2)cc(N2CCN(CCO)CC2)n1 [Dasatinib] (partner 0.075 µM)?
relative viability (NCI-H522; first compound 0.04 µM): 0.833; relative viability (NCI-H522; first compound 0.1265 µM): 0.887; relative viability (NCI-H522; first compound 0.4 µM): 0.714; relative viability (NCI-H522; first compound 1.265 µM): 0.851; relative viability (ChaGo-K-1; first compound 0.04 µM): 0.602; relative viability (ChaGo-K-1; first compound 0.1265 µM): 0.632; relative viability (ChaGo-K-1; first compound 0.4 µM): 0.518; relative viability (ChaGo-K-1; first compound 1.265 µM): 0.604; relative viability (SK-MES-1; first compound 0.04 µM): 0.406; relative viability (SK-MES-1; first compound 0.1265 µM): 0.384; relative viability (SK-MES-1; first compound 0.4 µM): 0.387; relative viability (SK-MES-1; first compound 1.265 µM): 0.4; relative viability (NCI-H1651; first compound 0.04 µM): 0.333; relative viability (NCI-H1651; first compound 0.1265 µM): 0.5; relative viability (NCI-H1651; first compound 0.4 µM): 0.384; relative viability (NCI-H1651; first compound 1.265 µM): 0.3; relative viability (NCI-H1623; first compound 0.04 µM): 0.537; relative viability (NCI-H1623; first compound 0.1265 µM): 0.502; relative viability (NCI-H1623; first compound 0.4 µM): 0.535; relative viability (NCI-H1623; first compound 1.265 µM): 0.545

Which results are given for CC1(C)CCC(c2ccc(Cl)cc2)=C(CN2CCN(c3ccc(C(=O)NS(=O)(=O)c4ccc(N[C@H](CCN5CCOCC5)CSc5ccccc5)c(S(=O)(=O)C(F)(F)F)c4)cc3)CC2)C1 [Navitoclax] + N=C(N)NC(=N)NCCc1ccccc1 [Phenformin] (partner 250 µM)?
relative viability (NCI-H522; first compound 0.005 µM): 0.633; relative viability (NCI-H522; first compound 0.01581 µM): 0.603; relative viability (NCI-H522; first compound 0.05 µM): 0.701; relative viability (NCI-H522; first compound 0.1581 µM): 0.695; relative viability (NCI-H522; first compound 0.5 µM): 0.699; relative viability (ChaGo-K-1; first compound 0.005 µM): 0.459; relative viability (ChaGo-K-1; first compound 0.01581 µM): 0.502; relative viability (ChaGo-K-1; first compound 0.05 µM): 0.397; relative viability (ChaGo-K-1; first compound 0.1581 µM): 0.48; relative viability (ChaGo-K-1; first compound 0.5 µM): 0.501; relative viability (SK-MES-1; first compound 0.005 µM): 0.581; relative viability (SK-MES-1; first compound 0.01581 µM): 0.746; relative viability (SK-MES-1; first compound 0.05 µM): 0.684; relative viability (SK-MES-1; first compound 0.1581 µM): 0.681; relative viability (SK-MES-1; first compound 0.5 µM): 0.722; relative viability (A549; first compound 0.005 µM): 0.146; relative viability (A549; first compound 0.01581 µM): 0.19; relative viability (A549; first compound 0.05 µM): 0.144; relative viability (A549; first compound 0.1581 µM): 0.157; relative viability (A549; first compound 0.5 µM): 0.146; relative viability (NCI-H1651; first compound 0.005 µM): 0.3; relative viability (NCI-H1651; first compound 0.01581 µM): 0.3; relative viability (NCI-H1651; first compound 0.05 µM): 0.298; relative viability (NCI-H1651; first compound 0.1581 µM): 0.353; relative viability (NCI-H1651; first compound 0.5 µM): 0.295; relative viability (NCI-H1623; first compound 0.005 µM): 0.624; relative viability (NCI-H1623; first compound 0.01581 µM): 0.671; relative viability (NCI-H1623; first compound 0.05 µM): 0.58; relative viability (NCI-H1623; first compound 0.1581 µM): 0.567; relative viability (NCI-H1623; first compound 0.5 µM): 0.555

What does the source list for CC1(C)CCC(c2ccc(Cl)cc2)=C(CN2CCN(c3ccc(C(=O)NS(=O)(=O)c4ccc(N[C@H](CCN5CCOCC5)CSc5ccccc5)c(S(=O)(=O)C(F)(F)F)c4)cc3)CC2)C1 [Navitoclax] + O=C(c1cc(Cc2n[nH]c(=O)c3ccccc23)ccc1F)N1CCN(C(=O)C2CC2)CC1 [Olaparib] (partner 8 µM)?
relative viability (NCI-H522; first compound 0.005 µM): 0.657; relative viability (NCI-H522; first compound 0.01581 µM): 0.745; relative viability (NCI-H522; first compound 0.05 µM): 0.757; relative viability (NCI-H522; first compound 0.1581 µM): 0.542; relative viability (NCI-H522; first compound 0.5 µM): 0.62; relative viability (ChaGo-K-1; first compound 0.005 µM): 0.445; relative viability (ChaGo-K-1; first compound 0.01581 µM): 0.472; relative viability (ChaGo-K-1; first compound 0.05 µM): 0.28; relative viability (ChaGo-K-1; first compound 0.1581 µM): 0.453; relative viability (ChaGo-K-1; first compound 0.5 µM): 0.461; relative viability (SK-MES-1; first compound 0.005 µM): 0.648; relative viability (SK-MES-1; first compound 0.01581 µM): 0.677; relative viability (SK-MES-1; first compound 0.05 µM): 0.775; relative viability (SK-MES-1; first compound 0.1581 µM): 0.636; relative viability (SK-MES-1; first compound 0.5 µM): 0.814; relative viability (Calu-6; first compound 0.005 µM): 0.57; relative viability (Calu-6; first compound 0.01581 µM): 0.518; relative viability (Calu-6; first compound 0.05 µM): 0.558; relative viability (Calu-6; first compound 0.1581 µM): 0.457; relative viability (Calu-6; first compound 0.5 µM): 0.478; relative viability (A549; first compound 0.005 µM): 0.37; relative viability (A549; first compound 0.01581 µM): 0.33; relative viability (A549; first compound 0.05 µM): 0.119; relative viability (A549; first compound 0.1581 µM): 0.33; relative viability (A549; first compound 0.5 µM): 0.302; relative viability (NCI-H1703; first compound 0.005 µM): 0.536; relative viability (NCI-H1703; first compound 0.01581 µM): 0.626; relative viability (NCI-H1703; first compound 0.05 µM): 0.508; relative viability (NCI-H1703; first compound 0.1581 µM): 0.512; relative viability (NCI-H1703; first compound 0.5 µM): 0.536; relative viability (EBC-1; first compound 0.005 µM): 0.745; relative viability (EBC-1; first compound 0.01581 µM): 0.864; relative viability (EBC-1; first compound 0.05 µM): 0.658; relative viability (EBC-1; first compound 0.1581 µM): 0.683; relative viability (EBC-1; first compound 0.5 µM): 0.663; relative viability (NCI-H1651; first compound 0.005 µM): 0.167; relative viability (NCI-H1651; first compound 0.01581 µM): 0.181; relative viability (NCI-H1651; first compound 0.05 µM): 0.152; relative viability (NCI-H1651; first compound 0.1581 µM): 0.189; relative viability (NCI-H1651; first compound 0.5 µM): 0.197; relative viability (NCI-H1648; first compound 0.005 µM): 0.632; relative viability (NCI-H1648; first compound 0.01581 µM): 1.06; relative viability (NCI-H1648; first compound 0.1581 µM): 0.922; relative viability (NCI-H1648; first compound 0.5 µM): 1.03; relative viability (NCI-H1299; first compound 0.005 µM): 0.943; relative viability (NCI-H1299; first compound 0.01581 µM): 1; relative viability (NCI-H1299; first compound 0.05 µM): 0.949; relative viability (NCI-H1299; first compound 0.1581 µM): 0.977; relative viability (NCI-H1299; first compound 0.5 µM): 0.956; relative viability (IA-LM; first compound 0.005 µM): 0.814; relative viability (IA-LM; first compound 0.01581 µM): 0.836; relative viability (IA-LM; first compound 0.05 µM): 0.792; relative viability (IA-LM; first compound 0.1581 µM): 0.789; relative viability (IA-LM; first compound 0.5 µM): 0.866
